In one series the test system is P. berghei sporozoites. The series is described as follows: P. berghei causal prophylaxis in vivo model. Set-up: species or system Plasmodium berghei. Conditions: oral nanoformulation, single dose 2.5 mg/kg day 0 or 3 doses 0.625 mg/kg days −1, 0, +1; C57BL/6 albino mice. The source says:
P. berghei sporozoites were obtained from laboratory-reared female Anopheles stephensi mosquitoes which were maintained at 18 degrees C for 17–22 days after feeding on a luciferase expressing P. berghei infected Swiss CD1ICR. Using a dissecting microscope, the salivary glands were extracted from malaria-infected mosquitoes and sporozoites were obtained. Briefly, mosquitoes were separated into head/thorax and abdomen. Thoraxes and heads were triturated with a mortar and pestle and suspended in medium RPMI 1640 containing 1% C57BL/6 mouse serum (Rockland Co, Gilbertsville, PA, USA). […] They were stained with a vital dye containing fluorescein diacetate (50 mg/mL in acetone) and ethidium bromide (20 μg/mL in phosphate buffered saline; Sigma Chemical Co, St. Louis, MO, USA) and counted in a hemocytometer to ensure that inoculated sporozoites were viable following the isolation procedure. […]
Animals were dosed with experimental compounds based on body weight. […] To insure the size of the compounds in the dosing solution were under […], the suspension was homogenized using a homogenizer (PRO Scientific Inc, Monroe, CT, USA) with a 10 mm open-slotted generator running at 20,000–22,000 rpm for 5 min in an ice bath. […] Stability beyond that time was not determined. […]

The nature of another series: PPB (human). The note with it: plasma. Format: in vitro ADME.
For the next series, the system named is T. gondii RH tachyzoites. Nature of the series: RH YFP challenge, oral nanoformulation of JAG21. In kind it is in vivo, Toxoplasma gondii. The note with it: for parasite burden reduced: peritoneal fluid 5 days later. As for the experimental part: JAG21 was prepared using hydroxyethyl cellulose (HEC) and Tween 80. Briefly, this dispersant solution containing 5 mg/mL HEC and 2 mg/mL Tween 80 in water was prepared. Solid JAG21 was added to 20 mg/mL, and the dispersion was sonicated for 60 s using a Sonics vc50 probe-tip sonicator set to 20 kHz to homogenize. Sonication was performed at room temperature. Aliquots of the homogeneous dispersion were frozen and lyophilized using a VirTis AdVantage freeze drier. These aliquots were stored at room temperature for 5–6 months. Prior to dosing, aliquots were reconstituted using water. Controls containing no JAG21 were also prepared. Following reconstitution with water, the dispersion was imaged using a Nikon ECLIPSE E200 optical microscope set to 40x magnification. The average particle size of the JAG21 dispersion in HEC/Tween 80 was determined using an in-house image analysis program. This novel method to stably formulate JAG21 was discovered after all other studies were completed and this was the last experiment in this manuscript performed as a consequence.
For studies of the nano formulated JAG 21, this was administered for 1 or 3 days by gavage in the doses shown in the results section. These C57BL6 background mice received 2000 RH tachyzoites IP. on day the first day of the experiment and peritoneal fluid was collected 5 days later to quantitate fluorescence and numbers of parasites.

In a further series the target is hERG (Homo sapiens, UniProt Q12809). The series is described as follows: hERG liability. Format: biochemical. A general note: The hERG channel carries a current that helps repolarise heart muscle cells.
hERG, sequence (Q12809 whole entry): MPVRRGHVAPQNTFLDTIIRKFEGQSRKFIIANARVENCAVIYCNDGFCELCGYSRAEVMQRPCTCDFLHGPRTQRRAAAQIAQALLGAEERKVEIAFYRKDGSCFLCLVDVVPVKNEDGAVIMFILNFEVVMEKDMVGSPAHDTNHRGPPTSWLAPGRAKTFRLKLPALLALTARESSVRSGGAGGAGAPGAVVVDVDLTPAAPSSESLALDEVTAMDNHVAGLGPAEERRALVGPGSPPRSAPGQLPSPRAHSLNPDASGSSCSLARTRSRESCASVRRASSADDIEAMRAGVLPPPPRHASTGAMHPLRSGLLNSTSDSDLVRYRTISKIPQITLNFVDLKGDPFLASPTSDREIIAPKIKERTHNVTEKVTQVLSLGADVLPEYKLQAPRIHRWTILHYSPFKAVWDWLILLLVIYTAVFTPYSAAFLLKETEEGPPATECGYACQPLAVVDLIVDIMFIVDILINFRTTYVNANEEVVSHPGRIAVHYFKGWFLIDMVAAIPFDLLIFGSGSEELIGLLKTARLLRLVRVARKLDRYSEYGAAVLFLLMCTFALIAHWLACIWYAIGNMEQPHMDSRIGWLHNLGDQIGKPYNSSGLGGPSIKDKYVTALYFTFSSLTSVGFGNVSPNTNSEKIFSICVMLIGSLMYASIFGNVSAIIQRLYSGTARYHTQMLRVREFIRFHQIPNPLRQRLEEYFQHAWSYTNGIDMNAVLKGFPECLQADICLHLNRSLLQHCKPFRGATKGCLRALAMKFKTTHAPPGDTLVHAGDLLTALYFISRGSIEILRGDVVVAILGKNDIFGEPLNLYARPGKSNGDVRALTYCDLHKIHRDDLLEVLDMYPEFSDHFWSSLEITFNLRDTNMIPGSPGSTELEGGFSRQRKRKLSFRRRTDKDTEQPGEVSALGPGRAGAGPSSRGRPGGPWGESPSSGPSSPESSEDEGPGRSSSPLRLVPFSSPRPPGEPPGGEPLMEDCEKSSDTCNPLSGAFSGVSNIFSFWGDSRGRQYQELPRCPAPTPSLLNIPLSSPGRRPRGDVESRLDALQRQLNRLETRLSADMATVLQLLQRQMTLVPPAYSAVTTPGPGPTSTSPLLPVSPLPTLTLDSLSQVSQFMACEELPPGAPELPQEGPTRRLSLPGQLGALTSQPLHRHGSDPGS
A further series has as its system T. gondii RPS13Δ. Nature of the series: RPS13Δ infection of interferon γ receptor knockout mice. In kind it is in vivo, Toxoplasma gondii. Conditions: mice to start 5 (Tafenoquine), 5 (JAG21). Here is the method: In pilot studies, herein, interferon γ receptor knockout mice that were not treated were observed following infection. At 7 and at 14 days following infection, spleen, and liver were removed and immune peroxidase stained. At 14 days a group of mice were treated with anhydrotetracycline and when a subset of these mice died, their spleen and liver were removed and immune peroxidase stained.
As in the pilot studies, this RPS13 Δ parasite also was used to infect interferon γ receptor knockout mice in a treatment study. In this separate study, groups of mice were infected with RPS13 Δ. They were treated with tafenoquine on day−1, or JAG21 for 14 days 2 h after infection, or the two together with tafenoquine on day−1 and JAG21 for the first 14 days, or with diluent only for 14 days, as described above. For the initial 14 days, no tetracycline was administered. After that time tetracycline was administered. Mice were observed each day. At the time they appeared to have substantial illness or at the termination of the experiment they were euthanized, tissues fixed in formalin and stained with hematoxylin and eosin or immunoperoxidase stained and parasite burden was assessed.

The structures appear in SMILES notation.

One may read the fraction unbound as the share of the substance not bound to proteins or other matrix. Broadly, the IC50 is the concentration that gives 50% inhibition. In the case of `Cc1[nH]c2c(c(=O)c1-c1ccc(Oc3ccc(OC(F)(F)F)cc3)cc1)CCCC2` [JAG21, 2-Methyl-3-(4-(4-(Trifluoromethoxy)Phenoxy)Phenyl)-5,6,7,8-Tetrahydroquinolin-4-One], the “survival 30 days post infection” value with P. berghei sporozoites amounted to 100%. Also, the fraction unbound in “PPB (human)” was determined as 0.001. Besides, the parasite burden reduced with T. gondii RH tachyzoites (single dose 10 mg/kg) and in the series on T. gondii RH tachyzoites (single dose 20 mg/kg) was ~ 60% each time. Moreover, the parasite burden result with T. gondii RH tachyzoites (three doses of 10 mg/kg on first 3 days, fifth day) is “markedly reduced”. On hERG, the IC50 was 22 µM. Also, the “number of mice left at 42” value with T. gondii RPS13Δ (Experiment 1, 6 (Tafenoquine+JAG21)) was determined as 2. For the same molecule, the “number of mice left at 37” value in the series with T. gondii RPS13Δ (Experiment 2, 9 (Tafenoquine+JAG21)) turned out to be 3.

The record behind these values is PMC7311950, “Potent Tetrahydroquinolone Eliminates Apicomplexan Parasites” (Frontiers in Cellular and Infection Microbiology, 2020).
